Laboratory results as given in the CheMixHub viscosity set.
Where “and” joins values, the source holds several entries; their conditions need not be identical. Equal values may be shown once. ± gives the uncertainty stated by the source.

Assay: xn = mol fraction of the nth substance listed

CCCCCBr + Cc1ccc(C)cc1
308.15 K, 101 kPa
Conditions	viscosity [mPa·s]
x2 = 0.1026	0.6316 ± 0.0052
x2 = 0.1991	0.6138 ± 0.0051
x2 = 0.304	0.5958 ± 0.005
x2 = 0.4033	0.5803 ± 0.0049
x2 = 0.503	0.5655 ± 0.0048
x2 = 0.6052	0.5526 ± 0.0047
x2 = 0.7021	0.5436 ± 0.0046
x2 = 0.8	0.5318 ± 0.0045
x2 = 0.9034	0.5238 ± 0.0045

CC(Cl)(Cl)Cl + Cc1ccccc1
303.15 K, 101 kPa
Conditions	viscosity [mPa·s]
x1 = 0.1635	0.5716 ± 0.015
x1 = 0.2871	0.6046 ± 0.016
x1 = 0.3684	0.6248 ± 0.016
x1 = 0.4152	0.6363 ± 0.016
x1 = 0.4825	0.6505 ± 0.017
x1 = 0.5694	0.6666 ± 0.017
x1 = 0.6729	0.6834 ± 0.018
x1 = 0.763	0.6958 ± 0.018
x1 = 0.8412	0.7049 ± 0.018
x1 = 0.9286	0.7156 ± 0.018

CCCCCBr + ClC(Cl)(Cl)Cl
viscosity [mPa·s], 101 kPa
Conditions	293.15 K	303.15 K	313.15 K	323.15 K
x1 = 0.13	0.925 ± 0.02	0.81 ± 0.017	0.712 ± 0.015	0.633 ± 0.014
x1 = 0.273	0.887 ± 0.019	0.78 ± 0.017	0.692 ± 0.015	0.62 ± 0.013
x1 = 0.429	0.863 ± 0.019	0.76 ± 0.016	0.675 ± 0.015	0.602 ± 0.013
x1 = 0.601	0.841 ± 0.018	0.742 ± 0.016	0.66 ± 0.014	0.592 ± 0.013

O=[N+]([O-])[O-].O=[N+]([O-])[O-].[Ba+2] + N
293.15 K, 101 kPa
Conditions	viscosity [mPa·s]
x1 = 0.06	0.171 ± 0.004
x1 = 0.13	0.24 ± 0.006
x1 = 0.28	0.366 ± 0.009
x1 = 0.58	0.81 ± 0.02

O=CO + NC=O
viscosity [mPa·s]
Conditions	298.15 K	303.15 K	308.15 K	313.15 K
101 kPa, x2 = 0.1	1.946 ± 0.059	–	–	1.429 ± 0.034
101 kPa, x2 = 0.2005	2.316 ± 0.079	–	–	1.685 ± 0.047
101 kPa, x2 = 0.3015	2.557 ± 0.093	–	–	1.849 ± 0.055
101 kPa, x2 = 0.4	2.85 ± 0.11	–	–	2.065 ± 0.066
101 kPa, x2 = 0.5002	3.057 ± 0.12	–	–	2.23 ± 0.075
101 kPa, x2 = 0.6001	3.196 ± 0.13	–	–	2.31 ± 0.079
101 kPa, x2 = 0.7	3.286 ± 0.14	–	–	2.342 ± 0.081
101 kPa, x2 = 0.8001	3.314 ± 0.14	–	–	2.355 ± 0.082
101 kPa, x2 = 0.9	3.341 ± 0.14	–	–	2.368 ± 0.083
101.33 kPa, x2 = 0.0748	1.77 ± 0.09	1.58 ± 0.08	1.45 ± 0.07	1.33 ± 0.07
101.33 kPa, x2 = 0.1535	2.01 ± 0.1	1.79 ± 0.09	1.65 ± 0.08	1.52 ± 0.08
101.33 kPa, x2 = 0.2286	2.25 ± 0.11	2 ± 0.1	1.83 ± 0.09	1.68 ± 0.08
101.33 kPa, x2 = 0.3078	2.5 ± 0.13	2.21 ± 0.11	2.02 ± 0.1	1.84 ± 0.09
101.33 kPa, x2 = 0.3891	2.81 ± 0.14	2.47 ± 0.12	2.26 ± 0.11	2.07 ± 0.1
101.33 kPa, x2 = 0.4554	2.86 ± 0.14	2.52 ± 0.13	2.3 ± 0.12	2.1 ± 0.11
101.33 kPa, x2 = 0.5248	2.98 ± 0.15	2.62 ± 0.13	2.39 ± 0.12	2.18 ± 0.11
101.33 kPa, x2 = 0.6239	3.06 ± 0.15	2.69 ± 0.14	2.46 ± 0.12	2.24 ± 0.11
101.33 kPa, x2 = 0.6923	3.09 ± 0.16	2.72 ± 0.14	2.48 ± 0.12	2.25 ± 0.11
101.33 kPa, x2 = 0.7982	3.13 ± 0.16	2.74 ± 0.14	2.49 ± 0.13	2.26 ± 0.11
101.33 kPa, x2 = 0.8449	3.12 ± 0.16	2.73 ± 0.14	2.48 ± 0.12	2.26 ± 0.11
101.33 kPa, x2 = 0.9202	3.11 ± 0.16	2.72 ± 0.14	2.47 ± 0.12	2.25 ± 0.11

C1CN2CN3CCN(CN1C3)C2 + O
viscosity [mPa·s], 101 kPa
Conditions	x1 = 0.003598	x1 = 0.007216	x1 = 0.01073	x1 = 0.01425	x1 = 0.0183
293.15 K	1.032 ± 0.021	1.083 ± 0.021	1.146 ± 0.021	1.232 ± 0.021	1.347 ± 0.021
298.15 K	0.928 ± 0.021	0.985 ± 0.021	1.047 ± 0.021	1.129 ± 0.021	1.24 ± 0.021
300.15 K	0.843 ± 0.021	0.899 ± 0.021	0.961 ± 0.021	1.04 ± 0.021	1.136 ± 0.021
305.15 K	0.764 ± 0.021	0.822 ± 0.021	0.88 ± 0.021	0.96 ± 0.021	1.054 ± 0.021

CCC(N)C(=O)[O-].[K+] (configuration not stated) + O
viscosity [mPa·s], 101.3 kPa
Conditions	x1 = 0.009	x1 = 0.019	x1 = 0.029	x1 = 0.039	x1 = 0.05	x1 = 0.06
303.15 K	0.988 ± 0.05	1.223 ± 0.062	1.552 ± 0.082	1.974 ± 0.1	2.518 ± 0.14	3.297 ± 0.17
308.15 K	0.884 ± 0.044	1.093 ± 0.056	1.394 ± 0.071	1.74 ± 0.086	2.206 ± 0.12	2.877 ± 0.15
313.15 K	0.803 ± 0.039	0.984 ± 0.05	1.257 ± 0.063	1.559 ± 0.075	1.962 ± 0.1	2.544 ± 0.13
318.15 K	0.728 ± 0.035	0.89 ± 0.045	1.133 ± 0.056	1.399 ± 0.067	1.757 ± 0.09	2.257 ± 0.11
323.15 K	0.67 ± 0.031	0.813 ± 0.04	1.032 ± 0.051	1.272 ± 0.059	1.585 ± 0.078	2.017 ± 0.1

CCCC[N+](CCCC)(CCCC)CCCC.[OH-] + O
viscosity [mPa·s], 101 kPa
Conditions	x1 = 0.00178	x1 = 0.00364	x1 = 0.007655	x1 = 0.0121	x1 = 0.01706	x1 = 0.02262	x1 = 0.0289
298.15 K	1.232 ± 0.022	1.332 ± 0.024	1.432 ± 0.026	2.03 ± 0.036	2.632 ± 0.047	3.779 ± 0.068	4.942 ± 0.088
303.15 K	1.088 ± 0.019	1.173 ± 0.021	1.258 ± 0.022	1.697 ± 0.03	2.233 ± 0.04	3.129 ± 0.056	4.045 ± 0.072
313.15 K	0.8712 ± 0.015	0.9342 ± 0.017	0.9951 ± 0.018	1.319 ± 0.024	1.659 ± 0.03	2.198 ± 0.039	2.857 ± 0.051
323.15 K	0.716 ± 0.013	0.7632 ± 0.013	0.8107 ± 0.014	1.04 ± 0.018	1.289 ± 0.023	1.692 ± 0.03	2.115 ± 0.038

NS(=O)(=O)c1cc(C(=O)O)c(NCc2ccco2)cc1Cl + O
viscosity, 101 kPa
Conditions	293.15 K	298.15 K	303.15 K	308.15 K	313.15 K
x1 = 2e-05	1.009 ± 0.021 mPa·s	0.8969 ± 0.021 mPa·s and 0.8925 ± 0.021 mPa·s	0.8057 ± 0.021 mPa·s and 0.8013 ± 0.021 mPa·s	0.7295 ± 0.021 mPa·s and 0.7245 ± 0.021 mPa·s	0.6618 ± 0.021 mPa·s and 0.6566 ± 0.021 mPa·s
x1 = 9e-05	1.017 ± 0.021 mPa·s and 1.02 ± 0.021 mPa·s	0.9018 ± 0.021 mPa·s and 0.9048 ± 0.021 mPa·s	0.81 ± 0.021 mPa·s and 0.8104 ± 0.021 mPa·s	0.7336 ± 0.021 mPa·s and 0.7368 ± 0.021 mPa·s	0.6659 ± 0.021 mPa·s
x1 = 0.0002	1.022 ± 0.021 mPa·s and 1.018 ± 0.021 mPa·s	0.9069 ± 0.021 mPa·s and 0.9052 ± 0.021 mPa·s	0.8174 ± 0.021 mPa·s and 0.8126 ± 0.021 mPa·s	0.7401 ± 0.021 mPa·s and 0.7333 ± 0.021 mPa·s	0.6718 ± 0.021 mPa·s and 0.6662 ± 0.021 mPa·s

O=C(O)CC(O)(CC(=O)O)C(=O)O + O
viscosity [mPa·s]
Conditions	293.15 K	298.15 K	303.15 K	308.15 K	313.15 K
100 kPa, x1 = 0.002	–	0.9112 ± 0.037	0.8258 ± 0.033	0.7481 ± 0.03	0.6742 ± 0.027
101.3 kPa, x1 = 0.00018	1.016 ± 0.06	0.908 ± 0.06	0.815 ± 0.06	0.737 ± 0.06	0.701 ± 0.06
101.3 kPa, x1 = 0.0003607	1.025 ± 0.06	0.917 ± 0.06	0.822 ± 0.06	0.741 ± 0.06	0.675 ± 0.06
101.3 kPa, x1 = 0.0005403	1.031 ± 0.06	0.922 ± 0.06	0.825 ± 0.06	0.747 ± 0.06	0.679 ± 0.06
